Values quoted from earlier work, collected in patent publication US20230065900A1, “COMPOSITIONS AND METHODS FOR MODULATING INFLAMMATION AND WOUND HEALING” (Alastin Skincare, Inc., priority 2020, published 2023).

Test system: hyaluronic acid level
Conditions: ex vivo human skin model

## CCCCCCCC(=O)CCc1ccc(O)c(OC)c1 [hydroxymethoxyphenyl decanone]
  stimulation of dermal hyaluronic acid level versus placebo: 259%
  stimulation of epidermal hyaluronic acid level versus placebo: 198%
